Laboratory results: article PMC12304285 (British Journal of Cancer, 2025)
Entries after “also recorded” stand apart in the source; their conditions may differ.

Tests used:
[1] = tested on: patients with advanced cancer; test: Preliminary antitumour activity by RECIST v1.1 (best objective response, target lesion change, PFS);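 further: same imaging modality as baseline kept at every follow-up, response-evaluable patients had ≥1 measurable non-irradiated target lesion ≥10 mm longest diameter and received ≥1 study dose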
Experimental: The imaging method used at baseline had to be used at all follow-up visits. The following parameters were estimated: percentage best change in target lesion; duration of response; objective response rate (ORR); and progression-free survival (PFS).
Descriptive statistics were used for all variables, as appropriate, and calculated only when n ≥ 3. Where data were available for <3 patients, only minimum, maximum and number of observations were provided. Percentages were calculated using the analysis set total and for modules or doses, unless otherwise stated. […] PFS, including median time to PFS and PFS rate at a specific timepoint, was summarized using the Kaplan–Meier method. SAS® version 9.4 was used for all analyses. The PK analysis set included dosed patients for whom an adequate PK profile was obtained.

[2] = Plasma and urine pharmacokinetics in patients; assay type: in vivo, human
Experimental: Urine PK samples were collected at Cycle 0, Day 1 and at Cycle 1, Day 8 at the following timepoints: pre-dose (Cycle 0, Day 1 only), 0 to 8 h post dose and 8 to 24 h post-dose. […] Maximum observed concentration (Cmax) and time to reach Cmax (tmax) were determined directly by inspection of the concentration-time profiles. Terminal half-life slope (t½λz) was calculated as ln2/terminal elimination rate constant (λz). Area under the plasma concentration time curve from zero to last measurable concentration (AUClast) was calculated using the linear up/log down trapezoidal rule. AUClast was extrapolated to infinity using λz to obtain overall exposure (AUCinf). The amount of drug excreted unchanged in the urine (e.g. Ae0-t, Aeτ) for any given dosing interval was determined by multiplying the concentration of drug determined in the urine sample by the volume of the sample collected in that period.

[3] = 12 patients evaluable for objective response

SMILES: Cc1cc2ncnn2cc1Nc1ncc2c(n1)n(C1CCOCC1)c(=O)n2C [AZD7648, 7-Methyl-2-[(7-methyl[1,2,4]triazolo[1,5-a]pyridin-6-yl)amino]-9-(tetrahydro-2H-pyran-4-yl)-7,9-dihydro-8H-purin-8-one]
- Best objective response: Complete response ([1]; 5 mg BID (n = 1)): 0 n (%)
- Best objective response: Death ([1]; 5 mg BID (n = 1)): 0 n (%)
- Best objective response: Disease progression ([1]; 5 mg BID (n = 1)): 1 (100.0) n (%)
- Best objective response: Not evaluable ([1]; 5 mg BID (n = 1)): 0 n (%)
- Best objective response: Partial response ([1]; 5 mg BID (n = 1)): 0 n (%)
- Best objective response: Stable disease ([1]; 5 mg BID (n = 1)): 0 n (%)
- Best objective response: Complete response ([1]; 5 mg QD (n = 1)): 0 n (%)
- Best objective response: Death ([1]; 5 mg QD (n = 1)): 0 n (%)
- Best objective response: Disease progression ([1]; 5 mg QD (n = 1)): 0 n (%)
- Best objective response: Not evaluable ([1]; 5 mg QD (n = 1)): 0 n (%)
- Best objective response: Partial response ([1]; 5 mg QD (n = 1)): 0 n (%)
- Best objective response: Stable disease ([1]; 5 mg QD (n = 1)): 1 (100.0) n (%)
- Best objective response: Complete response ([1]; 10 mg BID (n = 1)): 0 n (%)
- Best objective response: Death ([1]; 10 mg BID (n = 1)): 0 n (%)
- Best objective response: Disease progression ([1]; 10 mg BID (n = 1)): 0 n (%)
- Best objective response: Not evaluable ([1]; 10 mg BID (n = 1)): 0 n (%)
- Best objective response: Partial response ([1]; 10 mg BID (n = 1)): 0 n (%)
- Best objective response: Stable disease ([1]; 10 mg BID (n = 1)): 1 (100.0) n (%)
- Best objective response: Complete response ([1]; 20 mg BID (n = 1)): 0 n (%)
- Best objective response: Death ([1]; 20 mg BID (n = 1)): 0 n (%)
- Best objective response: Disease progression ([1]; 20 mg BID (n = 1)): 1 (100.0) n (%)
- Best objective response: Not evaluable ([1]; 20 mg BID (n = 1)): 0 n (%)
- Best objective response: Partial response ([1]; 20 mg BID (n = 1)): 0 n (%)
- Best objective response: Stable disease ([1]; 20 mg BID (n = 1)): 0 n (%)
- Best objective response: Complete response ([1]; 40 mg BID (n = 2)): 0 n (%)
- Best objective response: Death ([1]; 40 mg BID (n = 2)): 1 (50.0) n (%)
- Best objective response: Disease progression ([1]; 40 mg BID (n = 2)): 1 (50.0) n (%)
- Best objective response: Not evaluable ([1]; 40 mg BID (n = 2)): 0 n (%)
- Best objective response: Partial response ([1]; 40 mg BID (n = 2)): 0 n (%)
- Best objective response: Stable disease ([1]; 40 mg BID (n = 2)): 0 n (%)
- Best objective response: Complete response ([1]; 80 mg BID (n = 4)): 0 n (%)
- Best objective response: Death ([1]; 80 mg BID (n = 4)): 1 (25.0) n (%)
- Best objective response: Disease progression ([1]; 80 mg BID (n = 4)): 1 (25.0) n (%)
- Best objective response: Not evaluable ([1]; 80 mg BID (n = 4)): 1 (25.0) n (%)
- Best objective response: Partial response ([1]; 80 mg BID (n = 4)): 0 n (%)
- Best objective response: Stable disease ([1]; 80 mg BID (n = 4)): 1 (25.0) n (%)
- Best objective response: Complete response ([1]; 160 mg BID (n = 2)): 0 n (%)
- Best objective response: Death ([1]; 160 mg BID (n = 2)): 0 n (%)
- Best objective response: Disease progression ([1]; 160 mg BID (n = 2)): 1 (50.0) n (%)
- Best objective response: Not evaluable ([1]; 160 mg BID (n = 2)): 0 n (%)
- Best objective response: Partial response ([1]; 160 mg BID (n = 2)): 0 n (%)
- Best objective response: Stable disease ([1]; 160 mg BID (n = 2)): 1 (50.0) n (%)
- patients who died due to disease progression [1, 3]: 16.7%
- patients with RECIST disease progression [1, 3]: 41.7%
- patients with RECIST stable disease [1, 3]: 33.3%
- Best objective response: Complete response ([1]; All cohorts of the module): 0 n (%)
- Best objective response: Death ([1]; All cohorts of the module): 2 (16.7) n (%)
- Best objective response: Disease progression ([1]; All cohorts of the module): 5 (41.7) n (%)
- Best objective response: Not evaluable ([1]; All cohorts of the module): 1 (8.3) n (%)
- Best objective response: Partial response ([1]; All cohorts of the module): 0 n (%)
- Best objective response: Stable disease ([1]; All cohorts of the module): 4 (33.3) n (%)
- Median PFS ([1]; Kaplan–Meier, all dose levels): 1.91 months
- PFS rate at 6 months ([1]; Kaplan–Meier, all dose levels): 23.08%
- RECIST response observed ([1]; all dose levels): No responses; also recorded: No patient had a RECIST complete or partial response
- percentage change in target lesion size from baseline ([1]; one patient with stable disease, 80 mg BID): −29.2%
- best percentage change from baseline in target lesion size, increase of the patient capped in the waterfall plot ([1]; single patient): 108.33%
- exposure versus dose ([2]; 5 to 160 mg BID): increased in a broadly linear manner
- fraction excreted unchanged in urine ([2]; human, in vivo): 5–10 % of the total administered dose
- AUC(0-inf) ([2]; human, plasma, oral, 80 mg BID cohort, Cycle 0 Day 1 single dose, read-out: geoMean AUCinf): 25.2 µM·h
- Cmax ([2]; human, plasma, oral, 80 mg BID cohort, Cycle 0 Day 1 single dose, read-out: geoMean Cmax): 2460 nM
- Tmax ([2]; human, plasma, 5 to 160 mg, oral): 1 to 2 h
- drug exposure achieved ([2]; one patient at the 80 mg dose level): > 1 µM
